Data reported in the supplement of paper PMC8617591.

Legend:
[1] = tested on: Mycobacterium tuberculosis Erdman (autoluminescent); assay: total FIC90 (Loewe) at 90% inhibition, three-drug combination (log2); higher = more antagonistic
Description: (§1)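 DiaMOND equipotent three-drug combination dose responses (10 doses, 1.5- or 2-fold spacing, centred on IC90) against autoluminescent M. tuberculosis Erdman in 8 in vitro models. Read-out is OD600, or luminescence for the intracellular and dormancy models, normalised to untreated wells. Hill-fit Einf, AUC25 and GRinf are potency metrics; FIC50 and FIC90 are total Loewe fractional inhibitory concentrations as log2 (negative = synergy).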

[2] = tested on: Mycobacterium tuberculosis Erdman (autoluminescent); assay: AUC25, normalised area under dose response up to IC25 (three-drug combination) (fraction (0-1)); higher = more potent at low dose
Description: as §1

[3] = tested on: Mycobacterium tuberculosis Erdman (autoluminescent); assay: total FIC50 (Loewe) at 50% inhibition, three-drug combination (log2); higher = more antagonistic
Description: as §1

[4] = tested on: Mycobacterium tuberculosis Erdman (autoluminescent); assay: Einf, fitted maximum growth inhibition of three-drug combination (fraction); higher = stronger maximal inhibition
Description: as §1

[5] = tested on: Mycobacterium tuberculosis Erdman (autoluminescent); assay: GRinf, maximum normalised growth rate inhibition (three-drug combination) (unitless (-1 to 1)); higher = less effect (negative = killing)
Description: as §1

[6] = in vitro model: acidic pH 5.7, time point: terminal (~4-5 doublings, model-specific)
[7] = in vitro model: butyrate, time point: constant (~7 days, model-specific)
[8] = in vitro model: butyrate, time point: terminal (~4-5 doublings, model-specific)
[9] = in vitro model: cholesterol 0.05 mM, time point: terminal (~4-5 doublings, model-specific)
[10] = in vitro model: cholesterol-high 0.2 mM, time point: constant (~7 days, model-specific)
[11] = in vitro model: cholesterol-high 0.2 mM, time point: terminal (~4-5 doublings, model-specific)
[12] = in vitro model: dormancy (butyrate + nitrate, low O2), time point: constant (~7 days, model-specific)
[13] = in vitro model: dormancy (butyrate + nitrate, low O2), time point: terminal (~4-5 doublings, model-specific)
[14] = in vitro model: intracellular J774, time point: constant = terminal
[15] = in vitro model: standard 7H9 glycerol, time point: constant = terminal
[16] = in vitro model: valerate, time point: terminal (~4-5 doublings, model-specific)
[17] = in vitro model: acidic pH 5.7, time point: constant (~7 days, model-specific)
[18] = in vitro model: cholesterol 0.05 mM, time point: constant (~7 days, model-specific)
[19] = in vitro model: valerate, time point: constant (~7 days, model-specific)

## COc1nc2ccc(Br)cc2cc1[C@@H](c1ccccc1)[C@@](O)(CCN(C)C)c1cccc2ccccc12 [bedaquiline] + NNC(=O)c1ccncc1 [isoniazid] + COc1c(N2C[C@@H]3CCCN[C@@H]3C2)c(F)cc2c(=O)c(C(=O)O)cn(C3CC3)c12 [moxifloxacin]
[1]; [6]
  total FIC90: 0.776
[1]; [7]
  total FIC90: 0.906
[1]; [8]
  total FIC90: 0.575
[1]; [9]
  total FIC90: -0.479
[1]; [10]
  total FIC90: 0.57
[1]; [11]
  total FIC90: 0.234
[1]; [12]
  total FIC90: 0.336
[1]; [13]
  total FIC90: 0.782
[1]; [14]
  total FIC90: 1.2
[1]; [15]
  total FIC90: 0.614
[1]; [16]
  total FIC90: 1.33
[2]; [17]
  AUC25: 0.098
[2]; [6]
  AUC25: 0.0943
[2]; [7]
  AUC25: 0.0762
[2]; [8]
  AUC25: 0.0478
[2]; [18]
  AUC25: 0.0995
[2]; [9]
  AUC25: 0.0886
[2]; [10]
  AUC25: 0.0861
[2]; [11]
  AUC25: 0.0461
[2]; [12]
  AUC25: 0.0686
[2]; [13]
  AUC25: 0.0705
[2]; [15]
  AUC25: 0.0816
[2]; [19]
  AUC25: 0.1
[2]; [16]
  AUC25: 0.067
[3]; [17]
  total FIC50: 0.527
[3]; [6]
  total FIC50: 0.604
[3]; [7]
  total FIC50: 0.776
[3]; [8]
  total FIC50: 0.672
[3]; [18]
  total FIC50: 0.612
[3]; [9]
  total FIC50: 0.549
[3]; [10]
  total FIC50: 0.394
[3]; [11]
  total FIC50: 0.581
[3]; [12]
  total FIC50: 0.895
[3]; [13]
  total FIC50: 0.646
[3]; [15]
  total FIC50: 0.375
[3]; [19]
  total FIC50: 0.901
[3]; [16]
  total FIC50: 0.672
[4]; [17]
  Einf: 0.7
[4]; [6]
  Einf: 0.958
[4]; [7]
  Einf: 0.94
[4]; [8]
  Einf: 0.973
[4]; [18]
  Einf: 0.742
[4]; [9]
  Einf: 0.923
[4]; [10]
  Einf: 0.952
[4]; [11]
  Einf: 0.991
[4]; [12]
  Einf: 0.938
[4]; [13]
  Einf: 0.997
[4]; [14]
  Einf: 0.972
[4]; [15]
  Einf: 0.987
[4]; [19]
  Einf: 0.925
[4]; [16]
  Einf: 0.949
[5]; [17]
  GRinf: -0.325
[5]; [6]
  GRinf: -0.313
[5]; [7]
  GRinf: -0.0717
[5]; [8]
  GRinf: -0.0805
[5]; [18]
  GRinf: -0.202
[5]; [9]
  GRinf: -0.178
[5]; [10]
  GRinf: -0.436
[5]; [11]
  GRinf: -0.601
[5]; [12]
  GRinf: 0.161
[5]; [13]
  GRinf: -0.252
[5]; [14]
  GRinf: -0.784
[5]; [15]
  GRinf: -0.154
[5]; [19]
  GRinf: -0.134
[5]; [16]
  GRinf: -0.0225

## COc1nc2ccc(Br)cc2cc1[C@@H](c1ccccc1)[C@@](O)(CCN(C)C)c1cccc2ccccc12 [bedaquiline] + NNC(=O)c1ccncc1 [isoniazid] + NC(=O)c1cnccn1 [pyrazinamide]
[1]; [6]
  total FIC90: 0.15
[1]; [7]
  total FIC90: 0.726
[1]; [8]
  total FIC90: 0.404
[1]; [11]
  total FIC90: 0.505
[1]; [12]
  total FIC90: -0.645
[1]; [13]
  total FIC90: -0.625
[1]; [14]
  total FIC90: 0.651
[1]; [16]
  total FIC90: 1.01
[2]; [17]
  AUC25: 0.0904
[2]; [6]
  AUC25: 0.0797
[2]; [7]
  AUC25: 0.0809
[2]; [8]
  AUC25: 0.0598
[2]; [18]
  AUC25: 0.103
[2]; [9]
  AUC25: 0.102
[2]; [10]
  AUC25: 0.0921
[2]; [11]
  AUC25: 0.068
[2]; [12]
  AUC25: 0.0789
[2]; [13]
  AUC25: 0.0524
[2]; [15]
  AUC25: 0.0575
[2]; [19]
  AUC25: 0.0999
[2]; [16]
  AUC25: 0.0629
[3]; [17]
  total FIC50: 0.0123
[3]; [6]
  total FIC50: 0.0722
[3]; [7]
  total FIC50: 0.406
[3]; [8]
  total FIC50: 0.373
[3]; [9]
  total FIC50: 0.232
[3]; [10]
  total FIC50: 0.548
[3]; [11]
  total FIC50: 0.805
[3]; [12]
  total FIC50: -0.318
[3]; [13]
  total FIC50: 0.063
[3]; [15]
  total FIC50: 0.231
[3]; [19]
  total FIC50: 0.527
[3]; [16]
  total FIC50: 0.64
[4]; [17]
  Einf: 0.873
[4]; [6]
  Einf: 0.981
[4]; [7]
  Einf: 0.949
[4]; [8]
  Einf: 0.978
[4]; [18]
  Einf: 0.726
[4]; [9]
  Einf: 0.935
[4]; [10]
  Einf: 0.995
[4]; [11]
  Einf: 1
[4]; [12]
  Einf: 0.922
[4]; [13]
  Einf: 0.992
[4]; [14]
  Einf: 0.987
[4]; [15]
  Einf: 0.957
[4]; [19]
  Einf: 0.847
[4]; [16]
  Einf: 0.953
[5]; [17]
  GRinf: -0.529
[5]; [6]
  GRinf: -0.413
[5]; [7]
  GRinf: -0.109
[5]; [8]
  GRinf: -0.0731
[5]; [18]
  GRinf: -0.236
[5]; [9]
  GRinf: -0.279
[5]; [10]
  GRinf: -0.637
[5]; [11]
  GRinf: -0.598
[5]; [12]
  GRinf: 0.125
[5]; [13]
  GRinf: -0.123
[5]; [14]
  GRinf: -0.53
[5]; [15]
  GRinf: -0.0565
[5]; [19]
  GRinf: 0.0396
[5]; [16]
  GRinf: -0.0326

## COc1nc2ccc(Br)cc2cc1[C@@H](c1ccccc1)[C@@](O)(CCN(C)C)c1cccc2ccccc12 [bedaquiline] + NNC(=O)c1ccncc1 [isoniazid] + O=[N+]([O-])c1cn2c(n1)OC[C@@H](OCc1ccc(OC(F)(F)F)cc1)C2 [pretomanid]
[1]; [6]
  total FIC90: 0.765
[1]; [7]
  total FIC90: 1.16
[1]; [8]
  total FIC90: 0.889
[1]; [9]
  total FIC90: 0.608
[1]; [11]
  total FIC90: 0.0623
[1]; [12]
  total FIC90: -0.985
[1]; [13]
  total FIC90: -0.523
[1]; [14]
  total FIC90: 0.892
[1]; [15]
  total FIC90: 0.0648
[1]; [19]
  total FIC90: 1.13
[1]; [16]
  total FIC90: 1.97
[2]; [17]
  AUC25: 0.13
[2]; [6]
  AUC25: 0.108
[2]; [7]
  AUC25: 0.0753
[2]; [8]
  AUC25: 0.0523
[2]; [18]
  AUC25: 0.0895
[2]; [9]
  AUC25: 0.0672
[2]; [10]
  AUC25: 0.0717
[2]; [11]
  AUC25: 0.0327
[2]; [12]
  AUC25: 0.0674
[2]; [13]
  AUC25: 0.0671
[2]; [15]
  AUC25: 0.0757
[2]; [19]
  AUC25: 0.129
[2]; [16]
  AUC25: 0.109
[3]; [17]
  total FIC50: 0.219
[3]; [6]
  total FIC50: 0.209
[3]; [7]
  total FIC50: 1.04
[3]; [8]
  total FIC50: 0.897
[3]; [18]
  total FIC50: 0.775
[3]; [9]
  total FIC50: 6.17
[3]; [10]
  total FIC50: 0.37
[3]; [11]
  total FIC50: 0.584
[3]; [12]
  total FIC50: -0.188
[3]; [13]
  total FIC50: -0.769
[3]; [15]
  total FIC50: 0.177
[3]; [19]
  total FIC50: 0.632
[3]; [16]
  total FIC50: 0.661
[4]; [17]
  Einf: 0.923
[4]; [6]
  Einf: 0.988
[4]; [7]
  Einf: 0.947
[4]; [8]
  Einf: 0.975
[4]; [18]
  Einf: 0.722
[4]; [9]
  Einf: 0.924
[4]; [10]
  Einf: 0.887
[4]; [11]
  Einf: 0.992
[4]; [12]
  Einf: 0.924
[4]; [13]
  Einf: 0.994
[4]; [14]
  Einf: 0.996
[4]; [15]
  Einf: 0.966
[4]; [19]
  Einf: 0.886
[4]; [16]
  Einf: 0.953
[5]; [17]
  GRinf: -0.789
[5]; [6]
  GRinf: -0.439
[5]; [7]
  GRinf: -0.112
[5]; [8]
  GRinf: -0.0872
[5]; [18]
  GRinf: -0.21
[5]; [9]
  GRinf: -0.246
[5]; [10]
  GRinf: -0.196
[5]; [11]
  GRinf: -0.535
[5]; [12]
  GRinf: 0.224
[5]; [13]
  GRinf: -0.159
[5]; [14]
  GRinf: -0.588
[5]; [15]
  GRinf: -0.103
[5]; [19]
  GRinf: -0.333
[5]; [16]
  GRinf: -0.161
